Source: patent US6437128B1, “Cribrostatins 3-5” (Arizona Board of Regents, priority 2001, dated 2002)

Columns and labels:
[1] = system: Candida albicans (ATCC 90028); test: Antimicrobial disk diffusion; format: cell-based
[2] = system: Micrococcus luteus (Presque Isle 456); test: Antimicrobial disk diffusion; format: cell-based
[3] = system: Enterococcus faecalis (ATCC 29212); test: Antimicrobial disk diffusion; format: cell-based
[4] = system: Stenotrophomonas maltophilia (ATCC 13637); test: Antimicrobial disk diffusion; format: cell-based
[5] = system: Enterobacter cloacae (ATCC 13047); test: Antimicrobial disk diffusion; format: cell-based
[6] = system: Neisseria gonorrhoeae (ATCC 49226); test: Antimicrobial disk diffusion; format: cell-based
[7] = system: Cryptococcus neoformans (ATCC 90112); test: Antimicrobial disk diffusion; format: cell-based
[8] = system: Penicillin-resistant S. pneumoniae (clinical isolate); test: Antimicrobial disk diffusion; format: cell-based
[9] = system: Streptococcus pneumoniae (ATCC 6303); test: Antimicrobial disk diffusion; format: cell-based
[10] = system: Staphylococcus aureus (ATCC 29213); test: Antimicrobial disk diffusion; format: cell-based
[11] = system: Bacillus subtilis (Presque Isle 620); test: Antimicrobial disk diffusion; format: cell-based
[12] = system: Penicillin-resistant N. gonorrhoeae (clinical isolate); test: Antimicrobial disk diffusion; format: cell-based
[13] = system: Escherichia coli (ATCC 25922); test: Antimicrobial disk diffusion; format: cell-based
[14] = system: Invasive S. pneumoniae (clinical isolate); test: Antimicrobial disk diffusion; format: cell-based
[15] = system: Group A Streptococcus (clinical isolate); test: Antimicrobial disk diffusion; format: cell-based
786-O = test: NCI 60-cell screen; format: cell-based, human; conditions: averaged, quadruplicate, upper limit 10^−5 M
IGROV1 = test: NCI 60-cell screen; format: cell-based, human; conditions: averaged, quadruplicate, upper limit 10^−5 M
T-47D = test: NCI 60-cell screen; format: cell-based, human; conditions: averaged, quadruplicate, upper limit 10^−5 M
NCI-H460 = test: NCI 60-cell screen; format: cell-based, human; conditions: averaged, quadruplicate, upper limit 10^−5 M
RXF-393 = test: NCI 60-cell screen; format: cell-based, human; conditions: averaged, quadruplicate, upper limit 10^−5 M
OVCAR4 = test: NCI 60-cell screen; format: cell-based, human; conditions: averaged, quadruplicate, upper limit 10^−5 M
CCRF-CEM = test: NCI 60-cell screen; format: cell-based, human; conditions: averaged, quadruplicate, upper limit 10^−5 M
OVCAR-8 = test: NCI 60-cell screen; format: cell-based, human; conditions: averaged, quadruplicate, upper limit 10^−5 M
SF-295 = test: NCI 60-cell screen; format: cell-based, human; conditions: averaged, quadruplicate, upper limit 10^−5 M
SF-539 = test: NCI 60-cell screen; format: cell-based, human; conditions: averaged, quadruplicate, upper limit 10^−5 M
HOP-92 = test: NCI 60-cell screen; format: cell-based, human; conditions: averaged, quadruplicate, upper limit 10^−5 M
HOP-62 = test: NCI 60-cell screen; format: cell-based, human; conditions: averaged, quadruplicate, upper limit 10^−5 M
[16] = system: NCI 60-cell in vitro panel; test: NCI 60-cell in vitro panel, mean panel; format: cell-based, human; conditions: average ±SEM from the 40 cell lines that yielded GI50 values for both 4a and 5
Description: (§1) Individual cell line response values are provided in the Experimental.

SW-620 = test: NCI 60-cell screen; format: cell-based, human; conditions: averaged, quadruplicate, upper limit 10^−5 M
ACHN = test: NCI 60-cell screen; format: cell-based, human; conditions: averaged, quadruplicate, upper limit 10^−5 M
[17] = system: P388 lymphocytic leukemia; test: in vitro murine P388 lymphocytic leukemia (PS) cell growth inhibition; format: cell-based
Description: The fractions obtained from the 1988-89 recollection of Cribrochalina so. (See: Pettit, G. R.; Collins, J. C.; Herald, D. L.; Doubek, D. L.; Boyd, M. R.; Schmidt, J. M.; Hooper, J. N. A.; Tackett, L. P. Can. J. Cheim. 1992, 70, 1170-1175) beginning with the 195 g dichloromethane partition fraction were re-examined guided by bioassay results using the murine P388 lymphocytic leukemia.
as §1

SNB-75 = test: NCI 60-cell screen; format: cell-based, human; conditions: averaged, quadruplicate, upper limit 10^−5 M
COLO 205 = test: NCI 60-cell screen; format: cell-based, human; conditions: averaged, quadruplicate, upper limit 10^−5 M
SR = test: NCI 60-cell screen; format: cell-based, human; conditions: averaged, quadruplicate, upper limit 10^−5 M
MALME-3M = test: NCI 60-cell screen; format: cell-based, human; conditions: averaged, quadruplicate, upper limit 10^−5 M
SF-295 (CNS) = test: ASU-CRI minipanel of human cancer cell lines; format: cell-based; conditions: CNS SF-295
Description: as §1

NCI-H460 (Lung-NSC) = test: ASU-CRI minipanel of human cancer cell lines; format: cell-based
Description: as §1

KM20L2 (Colon) = test: ASU-CRI minipanel of human cancer cell lines; format: cell-based
Description: as §1

DU-145 (Prostate) = test: ASU-CRI minipanel of human cancer cell lines; format: cell-based; conditions: Prostate DU-145
Description: as §1

BXPC-3 (Pancreas-a) = test: ASU-CRI minipanel of human cancer cell lines; format: cell-based; conditions: Pancreas-a BXPC-3
Description: as §1

OVCAR-3 (Ovarian) = test: ASU-CRI minipanel of human cancer cell lines; format: cell-based; conditions: Ovarian OVCAR-3
Description: as §1

MDA-MB-435 = test: NCI 60-cell screen; format: cell-based, human; conditions: averaged, quadruplicate, upper limit 10^−5 M
LOX IMVI = test: NCI 60-cell screen; format: cell-based, human; conditions: averaged, quadruplicate, upper limit 10^−5 M
SN12C = test: NCI 60-cell screen; format: cell-based, human; conditions: averaged, quadruplicate, upper limit 10^−5 M
HS578T = test: NCI 60-cell screen; format: cell-based, human; conditions: averaged, quadruplicate, upper limit 10^−5 M
UACC-62 = test: NCI 60-cell screen; format: cell-based, human; conditions: averaged, quadruplicate, upper limit 10^−5 M
HL-60 (TB) = test: NCI 60-cell screen; format: cell-based, human; conditions: averaged, quadruplicate, upper limit 10^−5 M
MDA-N = test: NCI 60-cell screen; format: cell-based, human; conditions: averaged, quadruplicate, upper limit 10^−5 M
MDA-MB-231/ATCC = test: NCI 60-cell screen; format: cell-based, human; conditions: averaged, quadruplicate, upper limit 10^−5 M
MCF7 = test: NCI 60-cell screen; format: cell-based, human; conditions: averaged, quadruplicate, upper limit 10^−5 M
NCI-H522 = test: NCI 60-cell screen; format: cell-based, human; conditions: averaged, quadruplicate, upper limit 10^−5 M
PC-3 = test: NCI 60-cell screen; format: cell-based, human; conditions: averaged, quadruplicate, upper limit 10^−5 M
SF-268 = test: NCI 60-cell screen; format: cell-based, human; conditions: averaged, quadruplicate, upper limit 10^−5 M
MCF7/ADR-RES = test: NCI 60-cell screen; format: cell-based, human; conditions: averaged, quadruplicate, upper limit 10^−5 M
OVCAR-3 = test: NCI 60-cell screen; format: cell-based, human; conditions: averaged, quadruplicate, upper limit 10^−5 M
RPMI-8226 = test: NCI 60-cell screen; format: cell-based, human; conditions: averaged, quadruplicate, upper limit 10^−5 M
MOLT-4 = test: NCI 60-cell screen; format: cell-based, human; conditions: averaged, quadruplicate, upper limit 10^−5 M
K-562 = test: NCI 60-cell screen; format: cell-based, human; conditions: averaged, quadruplicate, upper limit 10^−5 M
SK-MEL-5 = test: NCI 60-cell screen; format: cell-based, human; conditions: averaged, quadruplicate, upper limit 10^−5 M
A549/ATCC = test: NCI 60-cell screen; format: cell-based, human; conditions: averaged, quadruplicate, upper limit 10^−5 M
KM 12 = test: NCI 60-cell screen; format: cell-based, human; conditions: averaged, quadruplicate, upper limit 10^−5 M
U251 = test: NCI 60-cell screen; format: cell-based, human; conditions: averaged, quadruplicate, upper limit 10^−5 M
NCI-H226 = test: NCI 60-cell screen; format: cell-based, human; conditions: averaged, quadruplicate, upper limit 10^−5 M

## CCOC1=C(C)C(=O)c2cc(=O)n(C)cc2C1=O [Cribrostatin 2, cribrostatin 2, reference compound]
[1]
  Minimum inhibitory concentration: 3.12-6.25 μg/disk
[2]
  Minimum inhibitory concentration: 50-100 μg/disk
[3]
  Minimum inhibitory concentration: * (No inhibition at 100 μg/disk)
[4]
  Minimum inhibitory concentration: * (No inhibition at 100 μg/disk)
[5]
  Minimum inhibitory concentration: * (No inhibition at 100 μg/disk)
[6]
  Minimum inhibitory concentration: 0.39-0.78 μg/disk
[7]
  Minimum inhibitory concentration: 12.5-25 μg/disk
[8]
  Minimum inhibitory concentration: 25-50 μg/disk
[9]
  Minimum inhibitory concentration: 12.3-25 μg/disk
[10]
  Minimum inhibitory concentration: 12.5-25 μg/disk
[11]
  Minimum inhibitory concentration: 25-50 μg/disk
[12]
  Minimum inhibitory concentration: 0.39-0.78 μg/disk
[13]
  Minimum inhibitory concentration: * (No inhibition at 100 μg/disk)
[14]
  Minimum inhibitory concentration: 50-100 μg/disk
[15]
  Minimum inhibitory concentration: * (No inhibition at 100 μg/disk)

## cribrostatin 3
[1]
  Minimum inhibitory concentration: * (No inhibition at 100 μg/disk)
786-O
  negative log10 GI50: 5.23
IGROV1
  negative log10 GI50: 5.14
T-47D
  negative log10 GI50: 5.19
NCI-H460
  negative log10 GI50: 5.52
RXF-393
  negative log10 GI50: 5.31
OVCAR4
  negative log10 GI50: 5.28
[2]
  Minimum inhibitory concentration: * (No inhibition at 100 μg/disk)
CCRF-CEM
  negative log10 GI50: 5.37
OVCAR-8
  negative log10 GI50: 5.06
SF-295
  negative log10 GI50: 5.44
SF-539
  negative log10 GI50: 5.32
HOP-92
  negative log10 GI50: 5.02
[3]
  Minimum inhibitory concentration: * (No inhibition at 100 μg/disk)
HOP-62
  negative log10 GI50: 5.27
[16]
  GI50: 4.27 µM
SW-620
  negative log10 GI50: 5.44
ACHN
  negative log10 GI50: 5.02
[17]; Mouse Leukemia P388
  GI50: 2.49 mg/L
[17]; in vitro P388 lymphocytic leukemia
  PS ED50 (P388 ED50): 2.5 mg/L
[4]
  Minimum inhibitory concentration: * (No inhibition at 100 μg/disk)
SNB-75
  negative log10 GI50: 5.32
COLO 205
  negative log10 GI50: 5.23
[5]
  Minimum inhibitory concentration: * (No inhibition at 100 μg/disk)
SR
  negative log10 GI50: 5.47
MALME-3M
  negative log10 GI50: 6.21
SF-295 (CNS)
  GI50: >1 mg/L
NCI-H460 (Lung-NSC)
  GI50: >1 mg/L
KM20L2 (Colon)
  GI50: >1 mg/L
DU-145 (Prostate)
  GI50: >1 mg/L
BXPC-3 (Pancreas-a)
  GI50: >1 mg/L
OVCAR-3 (Ovarian)
  GI50: 0.77 mg/L
MDA-MB-435
  negative log10 GI50: 5.74
LOX IMVI
  negative log10 GI50: 5.39
SN12C
  negative log10 GI50: 5.21
HS578T
  negative log10 GI50: 5.20
[6]
  Minimum inhibitory concentration: 0.0975-0.195 μg/disk
UACC-62
  negative log10 GI50: 5.60
[7]
  Minimum inhibitory concentration: * (No inhibition at 100 μg/disk)
HL-60 (TB)
  negative log10 GI50: 5.51
[9]
  Minimum inhibitory concentration: * (No inhibition at 100 μg/disk)
MDA-N
  negative log10 GI50: 5.72
MDA-MB-231/ATCC
  negative log10 GI50: 5.06
MCF7
  negative log10 GI50: 5.33
[10]
  Minimum inhibitory concentration: * (No inhibition at 100 μg/disk)
[11]
  Minimum inhibitory concentration: * (No inhibition at 100 μg/disk)
NCI-H522
  negative log10 GI50: 5.41
PC-3
  negative log10 GI50: 5.70
SF-268
  negative log10 GI50: 5.20
MCF7/ADR-RES
  negative log10 GI50: 5.34
OVCAR-3
  negative log10 GI50: 5.74
[12]
  Minimum inhibitory concentration: 0.39-0.78 μg/disk
RPMI-8226
  negative log10 GI50: 5.07
[13]
  Minimum inhibitory concentration: * (No inhibition at 100 μg/disk)
MOLT-4
  negative log10 GI50: 5.31
K-562
  negative log10 GI50: 5.13
SK-MEL-5
  negative log10 GI50: 5.96
A549/ATCC
  negative log10 GI50: 5.46
KM 12
  negative log10 GI50: 5.31
U251
  negative log10 GI50: 5.49
NCI-H226
  negative log10 GI50: 5.15
